Measured values from patent publication US10913738B2 (BRISTOL-MYERS SQUIBB COMPANY, priority 2017, dated 2021).
Read-outs that look alike come from different tables or passages of the source.

Key:
[1] = tested on: MLKL phosphorylation in HT29-L23 human colorectal adenocarcinoma cells; experiment: MLKL Phosphorylation High-Content Assay; format: cell-based
Protocol: MLKL Phosphorylation High-Content Assay
Following six hours incubation at 37° C. […] MLKL phosporylation was detected using anti-MLKL (phospho S358) antibody (Abcam #ab187091) (1:1000 dilution in Blocking Buffer [PBS supplemented with 0.1% BSA]) with overnight incubation at 4° C. […] Following another three cycles of washes in PBS, the microplates were sealed, and cellular images were acquired in the Cellomics ArrayScan VTI high-content imager equipped with an X1 camera. […] The image sets were analyzed using the Compartmental Analysis Bioapplication software (Cellomics). The level of MLKL phosphorylation was quantified as MEAN CircRingAvgIntenRatio. […] The data were fitted using the 4-parameter logistic equation to calculate the IC50 and Ymax values.

[2] = target: T1, His-GST-TVMV-hRIPK1(1-324) (Homo sapiens, UniProt Q13546); experiment: RIPK1 HTRF Binding Assay
T1 construct: The coding region of human RIPK1(1-324) flanked by NdeI site at 5′ end; made in house; host or cells: Spodoptera frugiperda (Sf9) insect cells, baculovirus
T1 sequence (Q13546 1-324): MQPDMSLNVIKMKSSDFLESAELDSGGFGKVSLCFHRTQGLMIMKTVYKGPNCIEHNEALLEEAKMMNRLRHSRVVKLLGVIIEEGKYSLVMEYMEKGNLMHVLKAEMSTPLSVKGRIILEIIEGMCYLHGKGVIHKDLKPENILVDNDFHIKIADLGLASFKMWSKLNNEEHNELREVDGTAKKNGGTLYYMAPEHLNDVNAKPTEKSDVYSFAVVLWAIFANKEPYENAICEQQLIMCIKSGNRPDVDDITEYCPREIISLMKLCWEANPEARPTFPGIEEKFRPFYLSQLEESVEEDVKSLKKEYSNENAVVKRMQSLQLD
Protocol: The plate was incubated at rt for 1 h.
Cloning and Baculovirus Expression of RIPK1 Construct
Baculovirus was generated for the construct using the Bac-to-Bac baculovirus expression system (Invitrogen) according to the manufacturer's protocol. Briefly, recombinant bacmid was isolated from transformed DH10Bac E. coli competent cells (Invitrogen) and used to transfect Spodoptera frugiperda (Sf9) insect cells (Invitrogen). Baculovirus was harvested 72 hours post transfection and a virus stock was prepared by infecting fresh Sf9 cells at a 1/1000 (v/v) ratio for 66 hours.
The production was carried out either at a 10 L scale in a 22 L cellbag (GE Healthcare Bioscience, Pittsburgh, Pa.) or at a 20 L scale in a 50 L cellbag using WAVE-Bioreactor System 20/50 (GE Healthcare Bioscience). The infected cells were harvested by centrifugation at 2000 rpm for 20 min at 4° C. in a SORVALL® RC12BP centrifuge. The cell pellets was stored at −70° C. before protein was purified.
RIPK1 containing cell paste was resuspended in 50 mM Tris pH 7.5, 150 mM NaCl, 10 mM imidazole, 5% glycerol, 5 mM MgSO4, 1 mM TCEP, 25 U/ml Benzonase, and Complete Protease Inhibitor tablets (1/50 ml, Roche Diagnostics, Indianapolis, Ind.). […] The suspension was clarified by centrifugation at 136,000×g for 40 min, at 4° C. The lysate was decanted from the pellet and passed through a 5 ml NiNTA Superflow cartridge (Qiagen, Valencia, Calif.) using an AKTA Pure (GE Healthcare). Column was eluted with 10 CV linear gradient into 50 mM Tris 7.5, 150 mM NaCl, 500 mM imidazole, 5% glycerol, 1 mM TCEP. Peak fractions were pooled and loaded directly onto 5 ml GSTrap 4B column (GE Healthcare). Column was washed with 50 mM Tris 7.0, 150 mM NaCl, 5% glycerol, 1 mM DTT and eluted in 10 CV linear gradient into 50 mM Tris 8.0, 150 mM NaCl, 20 mM reduced glutathione, 5% glycerol, 1 mM DTT. Fractions identified by SDS-PAGE as containing RIPK1 were pooled and concentrated using 30 kDa MWCO spin concentrators (Amicon Ultra-15, Millipore, Billerica, Mass.) and loaded onto a HiLoad 26/600 Superdex 200 column (GE Healthcare) equilibrated in 25 mM Tris 7.5, 150 mM NaCl, 2 mM TCEP, 5% glycerol.
Protein was aliquoted and stored at −80° C.

[3] = x marks IC50 class <20 nM, read-out: RIPK1 HTRF binding <20 nM
[4] = Homo sapiens, x marks IC50 class >200 nM, read-out: pMLKL cell activity >200 nM
[5] = x marks IC50 class >200 nM, read-out: RIPK1 HTRF binding >200 nM
[6] = Homo sapiens, x marks IC50 class 20-200 nM, read-out: pMLKL cell activity 20-200 nM
[7] = x marks IC50 class 20-200 nM, read-out: RIPK1 HTRF binding 20-200 nM
[8] = Homo sapiens, x marks IC50 class <20 nM, read-out: pMLKL cell activity <20 nM

“5-(2-amino-[1,2,4]triazolo[1,5-a]pyridin-7-yl)-6-chloro-N-(2-flouro-5-(trifluoromethoxy)benzyl)nicotinamide [Example 373]” showed an IC50 ([1]; x marks IC50 class >200 nM, read-out: pMLKL cell activity >200 nM) greater than 200 nM and an IC50 [2, 3] of less than 20 nM.

For `COc1ncc(-c2ccn3nc(N)nc3c2)cc1C(=O)N1CCCC(C(O)c2ccc(F)cc2)C1` (mixture of isomers) [Example 422, (5-(2-amino-[1,2,4]triazolo[1,5-a]pyridin-7-yl)-2-methoxypyridin-3-yl)(3-((4-fluorophenyl)(hydroxy)methyl)piperidin-1-yl)methanone], the IC50 [1, 4] was greater than 200 nM and the IC50 [2, 5] was greater than 200 nM.

For `COc1ncc(-c2ccn3nc(N)nc3c2)cc1C(=O)NC(C)c1cccc(OC(F)(F)F)c1` (single isomer, unassigned) [Example 36-1, 5-{2-Amino-[1,2,4]triazolo[1,5-a]pyridin-7-yl}-2-methoxy-N-{1-[3-(trifluoromethoxy)phenyl]ethyl}pyridine-3-carboxamide], the IC50 [1, 6] was 20 to 200 nM and the IC50 [2, 7] was 20 to 200 nM.

Work on `COc1ncc(-c2ccn3nc(N)nc3c2)cc1C(=O)NC(C)c1cccc(OC(F)(F)F)c1` (single isomer, unassigned) [Example 36-2, 5-{2-Amino-[1,2,4]triazolo[1,5-a]pyridin-7-yl}-2-methoxy-N-{1-[3-(trifluoromethoxy)phenyl]ethyl}pyridine-3-carboxamide] yielded an IC50 [1, 4] greater than 200 nM and an IC50 [2, 5] greater than 200 nM.

For `COc1ncc(-c2ccn3nc(N)nc3c2)cc1C(=O)NC(C)c1ccccc1OC(F)(F)F` (single isomer, unassigned) [Example 38-2, 5-{2-Amino-[1,2,4]triazolo[1,5-a]pyridin-7-yl}-2-methoxy-N-{1-[2-(trifluoromethoxy)phenyl]ethyl}pyridine-3-carboxamide], the IC50 [1, 4] was greater than 200 nM and the IC50 [2, 5] was greater than 200 nM.

Work on `COc1ncc(-c2ccn3nc(N)nc3c2)cc1C(=O)NCCC(O)c1ccc(F)cc1` (single isomer, unassigned) [Example 71-1, 5-(2-Amino-[1,2,4]triazolo[1,5-a]pyridin-7-yl)-N-(3-(4-fluorophenyl)-3-hydroxypropyl)-2-methoxynicotinamide] yielded an IC50 [1, 6] of 20 to 200 nM and an IC50 [2, 7] of 20 to 200 nM.

For `COc1ncc(-c2ccn3nc(N)nc3c2)cc1C(=O)Nc1cnn(C(C)c2ccc(F)cc2)c1` (single isomer, unassigned) [Example 76-1], the IC50 [1, 8] was less than 20 nM and the IC50 [2, 3] was less than 20 nM.

With `COc1ncc(-c2ccn3nc(N)nc3c2)cc1C(=O)Nc1cnn(C(C)c2ccc(F)cc2)c1` (single isomer, unassigned) [Example 76-2] the IC50 [1, 6] was 20 to 200 nM and the IC50 [2, 3] was less than 20 nM.

`COc1ncc(-c2ccn3nc(N)nc3c2)cc1C(=O)NC(C)c1cc(OC(F)(F)F)ccc1F` (single isomer, unassigned) [Example 89-1, 5-{2-amino-[1,2,4]triazolo[1,5-a]pyridin-7-yl}-N-{1-[2-fluoro-5-(trifluoromethoxy)phenyl]ethyl}-2-methoxypyridine-3-carboxamide] showed an IC50 [1, 6] of 20 to 200 nM and an IC50 [2, 7] of 20 to 200 nM.

`[2H]C([2H])([2H])Oc1ncc(-c2ccn3nc(N)nc3c2)cc1C(=O)NC(C)c1ccccc1OC(F)(F)F` (single isomer, unassigned) [Example 95-1, 5-{2-amino-[1,2,4]triazolo[1,5-a]pyridin-7-yl}-2-(deutero)methoxy-N-{1-[2-(trifluoromethoxy)phenyl]ethyl}pyridine-3-carboxamide] showed an IC50 [1, 4] greater than 200 nM and an IC50 [2, 5] greater than 200 nM.

`[2H]C([2H])([2H])Oc1ncc(-c2ccn3nc(N)nc3c2)cc1C(=O)NC(C)c1ccccc1OC(F)(F)F` (single isomer, unassigned) [Example 95-2, 5-{2-amino-[1,2,4]triazolo[1,5-a]pyridin-7-yl}-2-(deutero)methoxy-N-{1-[2-(trifluoromethoxy)phenyl]ethyl}pyridine-3-carboxamide] gave an IC50 [1, 8] of less than 20 nM and an IC50 [2, 3] of less than 20 nM.

Work on `[2H]C([2H])([2H])Oc1nc(C)c(-c2ccn3nc(N)nc3c2)cc1C(=O)NC(C)c1cc(OC(F)(F)F)ccc1F` (single isomer, unassigned) [Example 97-1, 5-{2-amino-[1,2,4]triazolo[1,5-a]pyridin-7-yl}-N-{1-[2-fluoro-5-(trifluoromethoxy)phenyl]ethyl}-2-(deutero)methoxy-6-methylpyridine-3-carboxamide] yielded an IC50 [1, 6] of 20 to 200 nM and an IC50 [2, 7] of 20 to 200 nM.

For `[2H]C([2H])([2H])Oc1nc(C)c(-c2ccn3nc(N)nc3c2)cc1C(=O)NC(C)c1ccccc1OC(F)(F)F` (single isomer, unassigned) [Example 98-1, 5-{2-amino-[1,2,4]triazolo[1,5-a]pyridin-7-yl}-2-(deutero)methoxy-6-methyl-N-{1-[2-(trifluoromethoxy)phenyl]ethyl}pyridine-3-carboxamide], the IC50 [1, 4] was greater than 200 nM and the IC50 [2, 5] was greater than 200 nM.

`[2H]C([2H])([2H])Oc1nc(C)c(-c2ccn3nc(N)nc3c2)cc1C(=O)NC(C)c1ccccc1OC(F)(F)F` (single isomer, unassigned) [Example 98-2, 5-{2-amino-[1,2,4]triazolo[1,5-a]pyridin-7-yl}-2-(deutero)methoxy-6-methyl-N-{1-[2-(trifluoromethoxy)phenyl]ethyl}pyridine-3-carboxamide] was tested, and the IC50 [1, 8] was less than 20 nM and the IC50 [2, 3] was less than 20 nM.

`Cc1ncc(-c2ccn3nc(N)nc3c2)cc1C(=O)NC(C)c1cc(C(F)(F)F)ccc1F` (single isomer, unassigned) [Example 99-1, 5-{2-amino-[1,2,4]triazolo[1,5-a]pyridin-7-yl}-N-{1-[2-fluoro-5-(trifluoromethyl)phenyl]ethyl}-2-methylpyridine-3-carboxamide] showed an IC50 [1, 6] of 20 to 200 nM and an IC50 [2, 7] of 20 to 200 nM.

Compound `COc1ncc(-c2ccn3nc(N)nc3c2)cc1C(=O)NCc1cccc(F)c1C(=O)N1CCC(F)(F)C1` [Example 378, 5-(2-amino-[1,2,4]triazolo[1,5-a]pyridin-7-yl)-N-(2-(3,3-difluoropyrrolidine-1-carbonyl)-3-fluorobenzyl)-2-methoxynicotinamide] has an IC50 [1, 6] of 20 to 200 nM.

`COc1nc(C)c(-c2ccn3nc(N)nc3c2)cc1C(=O)NCc1cccc(F)c1C(=O)N1CCC(F)(F)C1` [Example 382, 5-(2-amino-[1,2,4]triazolo[1,5-a]pyridin-7-yl)-N-(2-(3,3-difluoropyrrolidine-1-carbonyl)-3-fluorobenzyl)-2-methoxy-6-methlnicotinamide] gave an IC50 ([1]; x marks IC50 class <20 nM, read-out: pMLKL cell activity <20 nM) of less than 20 nM.

With `COc1ncc(-c2ccn3nc(N)nc3c2)cc1NC(=O)c1cnn(Cc2ccccc2)c1` [Example 413, N-(5-(2-amino-[1,2,4]triazolo[1,5-a]pyridin-7-yl)-2-methoxypyridin-3-yl)-1-benzyl-1H-pyrazole-4-carboxamide] the IC50 [1, 4] was greater than 200 nM.

In the case of `COc1ncc(-c2ccc3nc(N)nn3c2)cc1NC(=O)Cc1cc(OC(F)(F)F)ccc1F` [Example 418, N-(5-(2-amino-[1,2,4]triazolo[1,5-a]pyridin-6-yl)-2-methoxypyridin-3-yl)-2-(2-fluoro-5-(trifluoromethoxy)phenyl)acetamide], the IC50 [1, 6] is reported as 20 to 200 nM.
